{"source": "patent US11214594B2", "about": "“Antimicrobial peptide having synergistic antibacterial effect with antibiotics on multidrug resistant bacteria, and use thereof” (priority 2016, dated 2022)", "key": {"MDREC 1229 [1]": {"system": "MDREC 1229", "assay": "microbe, parasite or virus in culture", "format": "cell-based, Escherichia coli", "method_in_brief": "(§1)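 Each strain is brought to 2×10^6 CFU in nutrient-sufficient Mueller-Hinton medium and dispensed into wells. Peptide solutions, stepwise diluted 2:1 in the same medium, are then added. The minimal concentration preventing growth gives the MIC.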"}, "E. coli [2]": {"system": "E. coli", "assay": "microbe, parasite or virus in culture", "format": "cell-based, Escherichia coli", "settings": "16 h", "method_in_brief": "as §1"}, "MDREC 1238": {"system": "MDREC 1238", "format": "cell-based, Escherichia coli", "method_in_brief": "as §1"}, "MDRPA 2003": {"system": "MDRPA 2003", "format": "cell-based, Pseudomonas aeruginosa", "method_in_brief": "as §1"}, "MDRPA 2002": {"system": "MDRPA 2002", "format": "cell-based, Pseudomonas aeruginosa", "method_in_brief": "as §1"}, "S. aureus": {"system": "S. aureus", "assay": "microbe, parasite or virus in culture", "format": "cell-based, Staphylococcus aureus", "method_in_brief": "as §1"}, "MDREC 1229 [3]": {"system": "MDREC 1229", "assay": "MIC of antibiotic during combined treatment with antimicrobial peptide", "format": "cell-based, Escherichia coli", "method_in_brief": "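Strains in MH medium at 2×10^6 CFU/ml were mixed with peptide diluted stepwise (2:1) from its MIC, then antibiotic dilutions in MH medium were added to give the antibiotic MIC. The reversed set-up, peptide titrated against fixed antibiotic, gave the peptide MIC.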"}, "E. coli [4]": {"system": "E. coli", "assay": "MIC of antibiotic during combined treatment with antimicrobial peptide", "format": "cell-based, Escherichia coli", "settings": "for Antibiotic MIC, Erythromycin / Antibiotic MIC, Linezolid / Antibiotic MIC, Vancomycin: E. coli", "method_in_brief": "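Read-out is the MIC of each combined solution, obtained from MH-medium dilutions of antibiotic added well by well, with a reversed-condition run as well.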"}, "[5]": {"settings": "peptide treatment concentration 1 μg/ml"}, "[6]": {"settings": "peptide treatment concentration 2 μg/ml"}, "[7]": {"settings": "peptide treatment concentration 4 μg/ml"}, "[8]": {"settings": "peptide treatment concentration 6 μg/ml"}, "[9]": {"settings": "peptide treatment concentration 8 μg/ml"}, "[10]": {"settings": "peptide treatment concentration 16 μg/ml"}, "[11]": {"settings": "peptide treatment concentration 32 μg/ml"}, "[12]": {"settings": "peptide treatment concentration 64 μg/ml"}}, "note": "Where a SMILES comes first, the peptide text is derived from it.", "data": [{"smiles": "CC[C@H](C)[C@H](NC(=O)[C@H](CCCCN)NC(=O)[C@H](Cc1c[nH]c2ccccc12)NC(=O)[C@@H](N)CCCNC(=N)N)C(=O)N[C@@H](Cc1ccccc1)C(=O)N[C@@H](CCCCN)C(=O)N[C@@H](CCCCN)C(=O)N[C@H](C(=O)N1CCC[C@H]1C(=O)N[C@@H](CCCCN)C(=O)N[C@@H](Cc1ccccc1)C(=O)N[C@@H](CC(C)C)C(=O)N[C@@H](Cc1c[nH]cn1)C(=O)N[C@@H](CO)C(=O)N[C@@H](Cc1c[nH]c2ccccc12)C(=O)N[C@@H](CCCCN)C(=O)N[C@@H](CCCCN)C(=O)N[C@@H](Cc1c[nH]c2ccccc12)C(N)=O)[C@@H](C)CC", "note": "[PapMA-4, RWK IFK KIP KFL HSW KKW-NH2] (H-RWKIFKKIPKFLHSWKKW-NH2; N-terminus assumed)", "values": [{"measurement": "Minimal inhibitory concentration MIC", "setting": "MDREC 1229 [1]", "value": 32, "unit": "mg/L"}, {"measurement": "Minimal inhibitory concentration MIC", "setting": "E. coli [2]", "value": 16, "unit": "mg/L"}, {"measurement": "Minimal inhibitory concentration MIC", "setting": "MDREC 1238", "value": 32, "unit": "mg/L"}, {"measurement": "Minimal inhibitory concentration MIC", "setting": "MDRPA 2003", "value": 16, "unit": "mg/L"}, {"measurement": "Minimal inhibitory concentration MIC", "setting": "MDRPA 2002", "value": 16, "unit": "mg/L"}, {"measurement": "Minimal inhibitory concentration MIC", "setting": "S. aureus", "value": ">128", "unit": "mg/L"}, {"measurement": "Antibiotic MIC, Erythromycin", "setting": "MDREC 1229 [3]; [5]", "value": 64, "unit": "mg/L"}, {"measurement": "Antibiotic MIC, Linezolid", "setting": "MDREC 1229 [3]; [5]", "value": ">128", "unit": "mg/L"}, {"measurement": "Antibiotic MIC, Vancomycin", "setting": "MDREC 1229 [3]; [5]", "value": ">128", "unit": "mg/L"}, {"measurement": "Antibiotic MIC, Erythromycin", "setting": "MDREC 1229 [3]; [6]", "value": 32, "unit": "mg/L"}, {"measurement": "Antibiotic MIC, Linezolid", "setting": "MDREC 1229 [3]; [6]", "value": 64, "unit": "mg/L"}, {"measurement": "Antibiotic MIC, Vancomycin", "setting": "MDREC 1229 [3]; [6]", "value": ">128", "unit": "mg/L"}, {"measurement": "Antibiotic MIC, Erythromycin", "setting": "MDREC 1229 [3]; [7]", "value": 16, "unit": "mg/L"}, {"measurement": "Antibiotic MIC, Linezolid", "setting": "MDREC 1229 [3]; [7]", "value": 64, "unit": "mg/L"}, {"measurement": "Antibiotic MIC, Vancomycin", "setting": "MDREC 1229 [3]; [7]", "value": ">128", "unit": "mg/L"}, {"measurement": "Antibiotic MIC, Erythromycin", "setting": "MDREC 1229 [3]; [8]", "value": 16, "unit": "mg/L"}, {"measurement": "Antibiotic MIC, Linezolid", "setting": "MDREC 1229 [3]; [8]", "value": 64, "unit": "mg/L"}, {"measurement": "Antibiotic MIC, Vancomycin", "setting": "MDREC 1229 [3]; [8]", "value": ">128", "unit": "mg/L"}, {"measurement": "Antibiotic MIC, Erythromycin", "setting": "MDREC 1229 [3]; [9]", "value": 4, "unit": "mg/L"}, {"measurement": "Antibiotic MIC, Linezolid", "setting": "MDREC 1229 [3]; [9]", "value": 16, "unit": "mg/L"}, {"measurement": "Antibiotic MIC, Vancomycin", "setting": "MDREC 1229 [3]; [9]", "value": 128, "unit": "mg/L"}, {"measurement": "Antibiotic MIC, Erythromycin", "setting": "MDREC 1229 [3]; [10]", "value": 0.25, "unit": "mg/L"}, {"measurement": "Antibiotic MIC, Linezolid", "setting": "MDREC 1229 [3]; [10]", "value": 4, "unit": "mg/L"}, {"measurement": "Antibiotic MIC, Vancomycin", "setting": "MDREC 1229 [3]; [10]", "value": 32, "unit": "mg/L"}, {"measurement": "Antibiotic MIC, Erythromycin", "setting": "MDREC 1229 [3]; [11]", "value": 0, "unit": "mg/L"}, {"measurement": "Antibiotic MIC, Linezolid", "setting": "MDREC 1229 [3]; [11]", "value": 0, "unit": "mg/L"}, {"measurement": "Antibiotic MIC, Vancomycin", "setting": "MDREC 1229 [3]; [11]", "value": 0, "unit": "mg/L"}, {"measurement": "Antibiotic MIC, Erythromycin", "setting": "MDREC 1229 [3]; [12]", "value": 0, "unit": "mg/L"}, {"measurement": "Antibiotic MIC, Linezolid", "setting": "MDREC 1229 [3]; [12]", "value": 0, "unit": "mg/L"}, {"measurement": "Antibiotic MIC, Vancomycin", "setting": "MDREC 1229 [3]; [12]", "value": 0, "unit": "mg/L"}, {"measurement": "Synergistic effect of antibacterial activity with existing antibiotics compared with PapMA-1", "setting": "E. coli [4]; E. coli and MDREC1229", "value": "level similar to that of the PapMA-1 peptide"}, {"measurement": "Antibiotic MIC, Erythromycin", "setting": "E. coli [4]; erythromycin combined with peptide at 1 μg/ml", "value": 64, "unit": "mg/L"}, {"measurement": "Antibiotic MIC, Erythromycin", "setting": "E. coli [4]; erythromycin combined with peptide at 2 μg/ml", "value": 32, "unit": "mg/L"}, {"measurement": "Antibiotic MIC, Erythromycin", "setting": "E. coli [4]; erythromycin combined with peptide at 4 μg/ml", "value": 16, "unit": "mg/L"}, {"measurement": "Antibiotic MIC, Erythromycin", "setting": "E. coli [4]; erythromycin combined with peptide at 6 μg/ml", "value": 8, "unit": "mg/L"}, {"measurement": "Antibiotic MIC, Erythromycin", "setting": "E. coli [4]; erythromycin combined with peptide at 8 μg/ml", "value": 8, "unit": "mg/L"}, {"measurement": "Antibiotic MIC, Erythromycin", "setting": "E. coli [4]; erythromycin combined with peptide at 16 μg/ml", "value": 0, "unit": "mg/L"}, {"measurement": "Antibiotic MIC, Erythromycin", "setting": "E. coli [4]; erythromycin combined with peptide at 32 μg/ml", "value": 0, "unit": "mg/L"}, {"measurement": "Antibiotic MIC, Erythromycin", "setting": "E. coli [4]; erythromycin combined with peptide at 64 μg/ml", "value": 0, "unit": "mg/L"}, {"measurement": "Antibiotic MIC, Linezolid", "setting": "E. coli [4]; linezolid combined with peptide at 1 μg/ml", "value": 128, "unit": "mg/L"}, {"measurement": "Antibiotic MIC, Linezolid", "setting": "E. coli [4]; linezolid combined with peptide at 2 μg/ml", "value": 64, "unit": "mg/L"}, {"measurement": "Antibiotic MIC, Linezolid", "setting": "E. coli [4]; linezolid combined with peptide at 4 μg/ml", "value": 32, "unit": "mg/L"}, {"measurement": "Antibiotic MIC, Linezolid", "setting": "E. coli [4]; linezolid combined with peptide at 6 μg/ml", "value": 32, "unit": "mg/L"}, {"measurement": "Antibiotic MIC, Linezolid", "setting": "E. coli [4]; linezolid combined with peptide at 8 μg/ml", "value": 16, "unit": "mg/L"}, {"measurement": "Antibiotic MIC, Linezolid", "setting": "E. coli [4]; linezolid combined with peptide at 16 μg/ml", "value": 0, "unit": "mg/L"}, {"measurement": "Antibiotic MIC, Linezolid", "setting": "E. coli [4]; linezolid combined with peptide at 32 μg/ml", "value": 0, "unit": "mg/L"}, {"measurement": "Antibiotic MIC, Linezolid", "setting": "E. coli [4]; linezolid combined with peptide at 64 μg/ml", "value": 0, "unit": "mg/L"}, {"measurement": "Antibiotic MIC, Vancomycin", "setting": "E. coli [4]; vancomycin combined with peptide at 1 μg/ml", "value": ">128", "unit": "mg/L"}, {"measurement": "Antibiotic MIC, Vancomycin", "setting": "E. coli [4]; vancomycin combined with peptide at 2 μg/ml", "value": ">128", "unit": "mg/L"}, {"measurement": "Antibiotic MIC, Vancomycin", "setting": "E. coli [4]; vancomycin combined with peptide at 4 μg/ml", "value": ">128", "unit": "mg/L"}, {"measurement": "Antibiotic MIC, Vancomycin", "setting": "E. coli [4]; vancomycin combined with peptide at 6 μg/ml", "value": 128, "unit": "mg/L"}, {"measurement": "Antibiotic MIC, Vancomycin", "setting": "E. coli [4]; vancomycin combined with peptide at 8 μg/ml", "value": 32, "unit": "mg/L"}, {"measurement": "Antibiotic MIC, Vancomycin", "setting": "E. coli [4]; vancomycin combined with peptide at 16 μg/ml", "value": 0, "unit": "mg/L"}, {"measurement": "Antibiotic MIC, Vancomycin", "setting": "E. coli [4]; vancomycin combined with peptide at 32 μg/ml", "value": 0, "unit": "mg/L"}]}]}
